Data set [1] deals with Raw264.7 macrophage cells infected with PA14. Nature of the data set: Viability of PA14-infected macrophage cells (MTT assay). It is filed as cell-based. The conditions noted are these: PA14 MOI 100, 3 h, 100 μM compound. How it is done: Raw264.7 macrophage cells were cultured in Dulbecco's modified eagles medium (DMEM) containing 10% FCS, 2 mM glutamine and antibiotic-antimycotic solutions. Before infections cells were washed with PBS (without Mg2+ and Ca2+) and antibiotic-free medium was used for infections. The cells were infected with PA14 and PA14 isolates grown in the presence of compounds at an MOI of 100 for 3 h at 37° C. in a 5% CO2 atmosphere. During infections cells were incubated with 100 μM of compounds as well. After 3 hours of PA14 infection, the cells were washed and incubated with DMEM medium containing polymixin B and gentamicin in order to kill the extracellular bacteria. The viability of Raw264.7 was assessed using the MTT assay, which detects the early sign of eukaryotic cell death. The formazan crystals formed in viable, metabolically active cells were dissolved by the addition of 100 μl DMSO and optical density was measured at 570 nm in a microplate reader.
In order to determine whether or not the potent inhibitors are cytotoxic in eukaryotes, Raw 264.7 macrophage cells were exposed to selected compounds. No significant cytotoxicity was observed following compound exposure for 3 hours compared to the DMSO solvent control (FIG. 6A). The cytotoxicity of the macrophage cells was also determined when infected with PA14 bacterial cells alone or in the presence of the compounds.

For data set [2], the system named is pyocyanin, an MvfR-regulated virulence factor, P. aeruginosa PA14. Nature of the data set: Quantification of pyocyanin (OD520nm of chloroform-extracted cultures). It is filed as cell-based, Pseudomonas aeruginosa. The conditions noted are these: for reduction / inhibition of pyocyanin: very low concentrations, nanomolar range; for pyocyanin levels: twelve of the 17 HAQ-lowering hits, vs control. The method, then:
Pyocyanin levels were determined by measuring OD520nm of chloroform-extracted cultures.
Compounds were tested at various concentrations for their impact on 4-hydroxy-2-alkylquinoline (HAQ) levels, including the MvfR ligands 4-hydroxy-2-heptylquinoline (HHQ) and 3,4-dihydroxy-2-heptylquinoline (PQS), as well as 2-n-heptyl-4-hydroxyquinoline-N-oxide (HQNO) and 2,4-dihydroxyquinoline (DHQ) (FIGS. 2A-2C). Levels of the phenazine, pyocyanin, an MvfR-regulated virulence factor, were also determined.

Data set [3] deals with ΔmvfR mutant constitutively expressing the pqsABCD genes. Nature of the data set: HAQ production in ΔmvfR mutant constitutively expressing pqsABCD (LC/MS). The settings on record: 100 μM inhibitor. It is filed as cell-based, Pseudomonas aeruginosa. The text has this:
However, since these compounds diminish or abolish P. aeruginosa HAQ production, it is possible that they target either the MvfR protein itself or enzymes in the pqs operon that are required for HAQ synthesis. To further understand the target(s) of these compounds, a ΔmvfR mutant constitutively expressing the pqsABCD genes was used. This strain is capable of synthesizing HHQ, HQNO, PQS and DHQ independently of MvfR. […] Since PqsA and PqsD are necessary and sufficient for DHQ production, it is possible that these inhibitors target either PqsB or PqsC enzymes, which are required for HHQ and PQS production.

In data set [4] the test system is 4-hydroxy-2-alkylquinoline (HAQ) levels, P. aeruginosa PA14 (MvfR regulon). It is filed as cell-based, Pseudomonas aeruginosa. The conditions noted are these: for activity (impacts on HAQ and pyocyanin levels), structure-activity comparison / HAQ production / HAQ inhibition: tested at 10 μM; for reduction / inhibition of HAQs: very low concentrations, nanomolar range; for concentration at which compound was effective (decreased HAQ levels), as low as: among the seventeen HAQ-lowering hits.

Turning to `O=C(CSc1nc2ccc([N+](=O)[O-])cc2[nH]1)Nc1ccc(Br)cc1` [Compound M50, N-(4-bromophenyl)-2-((6-nitro-1H-benzo[d]imidazol-2-yl)thio)acetamide], the “reduction of PA14-induced cytotoxicity” value in data set [1] is recorded as “effectively reduced cytotoxicity”. For the same compound, the “reduction / inhibition of pyocyanin” value in data set [2] is listed as “considerably inhibited”. Further, the “HAQ levels compared to the solvent control” value in data set [3] is reported as “do not significantly alter HAQ levels”. Also, in data set [4], the “activity (impacts on HAQ and pyocyanin levels), structure-activity comparison” value (from here on “activity”) is reported as “most active”; the “reduction / inhibition of HAQs” value is “considerably inhibited”.

Take `COc1ccc(NC(=O)CSc2nc3ccc([N+](=O)[O-])cc3[nH]2)c(OC)c1` [Compound M34, N-(2,4-dimethoxyphenyl)-2-((6-nitro-1H-benzo[d]imidazol-2-yl)thio)acetamide]: the pyocyanin levels result in data set [2] is on record as “less than half of the control”. The “HAQ levels compared to the solvent control” value in data set [3] is “do not significantly alter HAQ levels”. Moreover, in data set [4], the “concentration at which compound was effective (decreased HAQ levels), as low as” value turned out to be 10 µM; the “activity” value is “quite active”.

`COc1ccc2nc(SCC(=O)Nc3ccc(Cl)c(Cl)c3)[nH]c2c1` [Compound M24, N-(3,4-dichlorophenyl)-2-((6-methoxy-1H-benzo[d]imidazol-2-yl)thio)acetamide]: the “activity” value in data set [4] is “decreased the activity”.

Turning to `O=C(CSc1nc2ccccc2[nH]1)Nc1ccc([N+](=O)[O-])cc1` [Compound M45, 2-((1H-benzo[d]imidazol-2-yl)thio)-N-(4-nitrophenyl)acetamide], the “activity” value in data set [4] is on record as “did not improve the activity”.

For `COc1ccc(NC(=O)CSc2nc3ccc([N+](=O)[O-])cc3[nH]2)cc1` [Compound M61, N-(4-methoxyphenyl)-2-((6-nitro-1H-benzo[d]imidazol-2-yl)thio)acetamide], the “HAQ levels compared to the solvent control” value in data set [3] is recorded as “do not significantly alter HAQ levels”. For the same compound, the “activity” value in data set [4] is “most active”.

On to `COc1ccccc1NC(=O)CSc1nc2ccccc2[nH]1` [Compound M46, 2-((1H-benzo[d]imidazol-2-yl)thio)-N-(2-methoxyphenyl)acetamide], for which the “activity” value in data set [4] is “did not improve the activity”.

Take `CCc1ccc(NC(=O)CSc2nc3ccc(C)cc3[nH]2)cc1` [Compound M23, N-(4-ethylphenyl)-2-((6-methyl-1H-benzo[d]imidazol-2-yl)thio)acetamide]: the pyocyanin levels entry in data set [2] is reported as “less than half of the control”. Further, in data set [3], the DHQ level result is reported as “increased”; the “HHQ and HQNO levels” value is recorded as “reduced”. Further, the “activity” value in data set [4] is on record as “moderately active”.

As for `O=C(CSc1nc2ccccc2[nH]1)Nc1ccc(Br)cc1` [Compound M55, 2-((1H-benzo[d]imidazol-2-yl)thio)-N-(4-bromophenyl)acetamide], in data set [3], the DHQ level result is “increased”; the “HHQ and HQNO levels” value was “reduced”. Moreover, the “activity” value in data set [4] was “active compounds”.

Turning to `O=C(CSc1nc2ccc(NC(=O)C(F)(F)F)cc2[nH]1)Nc1ccc(I)cc1` [Compound M63, 2,2,2-trifluoro-N-(2-((2-((4-iodophenyl)amino)-2-oxoethyl)thio)-1H-benzo[d]imidazol-6-yl)acetamide], the “activity” value in data set [4] is “inactive”.

In the case of `N#Cc1ccc(NC(=O)CSc2nc3ccc([N+](=O)[O-])cc3[nH]2)cc1` [Compound M62, N-(4-cyanophenyl)-2-((6-nitro-1H-benzo[d]imidazol-2-yl)thio)acetamide], the “reduction of PA14-induced cytotoxicity” value in data set [1] was “effectively reduced cytotoxicity”. In addition, in data set [3], the “HAQ levels compared to the solvent control” value was “do not significantly alter HAQ levels”. The “activity” value in data set [4] was “most active”.

For `CC(=O)Nc1ccc2nc(SCC(=O)Nc3ccc(I)cc3)[nH]c2c1` [Compound M65, 2-((6-acetamido-1H-benzo[d]imidazol-2-yl)thio)-N-(4-iodophenyl)acetamide], the “activity” value in data set [4] is “inactive”.

Turning to `N#Cc1ccc(NC(=O)CSc2nc3ccccc3[nH]2)cc1` [Compound B1, 2-((1H-benzo[d]imidazol-2-yl)thio)-N-(4-cyanophenyl)acetamide], the pyocyanin levels entry in data set [2] is recorded as “less than half of the control”. The “HAQ levels compared to the solvent control” value in data set [3] is reported as “intermediate phenotype”. Moreover, in data set [4], the “activity” value is “active compounds”.

In the case of `O=C(CSc1nc2ccc([N+](=O)[O-])cc2[nH]1)Nc1ccc(OC(F)(F)F)cc1` [Compound M58, 2-((6-nitro-1H-benzo[d]imidazol-2-yl)thio)-N-(4-(trifluoromethoxy)phenyl)acetamide], the “HAQ levels compared to the solvent control” value in data set [3] is given as “intermediate phenotype”. For the same compound, the “activity” value in data set [4] was “most active”.

On to `O=C(CSc1nc2ccccc2[nH]1)Nc1ccc(Cl)c(Cl)c1` [Compound M22, 2-((1H-benzo[d]imidazol-2-yl)thio)-N-(3,4-dichlorophenyl)acetamide], for which the “activity” value in data set [4] is listed as “decreased the activity as compared to M26”.

Regarding `COc1ccccc1NC(=O)CSc1nc2ccc([N+](=O)[O-])cc2[nH]1` [Compound M53, N-(2-methoxyphenyl)-2-((6-nitro-1H-benzo[d]imidazol-2-yl)thio)acetamide], the “HAQ levels compared to the solvent control” value in data set [3] is given as “do not significantly alter HAQ levels”. Further, the “activity” value in data set [4] was “not very active”.

For `O=C(CSc1nc2ccc([N+](=O)[O-])cc2[nH]1)Nc1ccc(Cl)cc1` [Compound M51, N-(4-chlorophenyl)-2-((6-nitro-1H-benzo[d]imidazol-2-yl)thio)acetamide], in data set [3], the “HAQ levels compared to the solvent control” value is reported as “intermediate phenotype”. In data set [4], the “activity” value is “most active”.

On to `O=C(CSc1nc2ccccc2[nH]1)Nc1ccc(Cl)cc1` [Compound M26, 2-((1H-benzo[d]imidazol-2-yl)thio)-N-(4-chlorophenyl)acetamide], for which the pyocyanin levels entry in data set [2] was “less than half of the control”. For the same compound, in data set [3], the DHQ level entry is “increased”; the “HHQ and HQNO levels” value is “reduced”. Moreover, in data set [4], the “concentration at which compound was effective (decreased HAQ levels), as low as” value is 10 µM; the “activity” value is “active compounds”.

On to `O=C(CSc1nc2ccccc2[nH]1)Nc1ccccc1` [Compound M56, 2-((1H-benzo[d]imidazol-2-yl)thio)-N-phenylacetamide], for which the pyocyanin production result in data set [2] (tested at 10 μM) was “little impact”. The “HAQ production / HAQ inhibition” value in data set [4] was “little impact”.

In the case of `O=C(CSc1nc2ccc([N+](=O)[O-])cc2[nH]1)Nc1ccc(I)cc1` [Compound M59, N-(4-iodophenyl)-2-((6-nitro-1H-benzo[d]imidazol-2-yl)thio)acetamide], in data set [2], the “reduction / inhibition of pyocyanin” value was “considerably inhibited”. The “HAQ levels compared to the solvent control” value in data set [3] is recorded as “intermediate phenotype”. For the same compound, in data set [4], the “activity” value is “most active”; the “reduction / inhibition of HAQs” value is reported as “considerably inhibited”.

For `CC(C)c1ccc(NC(=O)CSc2nc3ccccc3[nH]2)cc1` [Compound M49, 2-((1H-benzo[d]imidazol-2-yl)thio)-N-(4-isopropylphenyl)acetamide], the “activity” value in data set [4] was “more active compound”.

Consider `CSc1cccc(NC(=O)CSc2nc3ccccc3[nH]2)c1` [Compound M4, 2-((1H-benzo[d]imidazol-2-yl)thio)-N-(3-(methylthio)phenyl)acetamide], for which, in data set [3], the DHQ level entry was “increased”; the “HHQ and HQNO levels” value was “reduced”. Further, in data set [4], the “concentration at which compound was effective (decreased HAQ levels), as low as” value came to 10 µM and the “HAQ production / HAQ inhibition” value is reported as “improved HAQ inhibition”.

Source of the values: patent US8877940B2, “Antibiotic tolerance inhibitors” (Institut National de la Recherche Scientifique, priority 2011, dated 2014).
